One experiment has as its target T1, Syk (Homo sapiens, UniProt P43405).
T1 construct: purchased Promega
Description: Syk Biochemical Assay (ADP-Glo luminescence). The settings on record: ATP 40 μM final, 60 minutes, read-out: SYK Biochem IC50. As to the method: Compounds were serially diluted in 100% DMSO, prior to an intermediate dilution in water. In a low volume white 384-well Proxiplate (Perkin Elmer), 1 μL of compound (0.4% final DMSO) was added to 3 μL of 10 ng/well Syk (Promega) and 0.2 mg/mL Poly-E4Y1 substrate (Promega) in assay buffer (final 40 mM Tris-HCl pH 7.4, 20 mM MgCl2, 0.1 mg/mL BSA) for 5 minutes. The reaction was initiated by addition of 1 μL of ATP (40 μM final) and allowed to proceed for 60 minutes at room temperature. The reaction was terminated by addition of 5 μL of ADP-Glo Reagent Mix (Promega) containing 1 mM MgCl2 for 45 minutes at room temperature. 10 μL of Kinase Detection Reagent (Promega) was added and incubated for 10 minutes at room temperature, before luminescence was measured using an Ensight Multimode Plate Reader (Perkin Elmer).
On the technique in general: ADP-Glo first removes unused ATP, then detects ADP through luciferase.

A further experiment has as its target T2, Ba/F3-Syk cells (Homo sapiens, UniProt P43405).
T2 construct: fused on or other part: Possible but unprinted fusion partner: TEL (ETV6), the usual partner for Ba/F3 lines transformed by Syk; Nothing on a partner is printed
Description: Ba/F3 Proliferation Assay, Ba/F3-Syk cells (Resazurin). The format is cell-based. The note with it: 48-hour incubation. On the technique in general: The colour change of resazurin is a common sign of viable cells or microbes.

In experiment [1] the test system is Ba/F3-WT (wild type) cells. The experiment is described as follows: Ba/F3 Proliferation Assay, Ba/F3-WT (wild type) cells with mIL-3 (Resazurin). The settings on record: Ba/F3-WT cells +mIL-3, 48-hour incubation. The class given is cell-based.

A value given as a limit tells only on which side of the number the result lay.

Drawing on patent publication US20250263408A1 (Uniquest Pty Ltd, priority 2022, published 2025), this text covers IC50 and EC50 for 26 compounds.

Broadly, the IC50 is the point on the concentration scale where inhibition reaches its midpoint. A word on the EC50: it is the concentration that produces a half-maximal response. Read a low EC50 as greater potency. For the compound `C1=C(c2cc3ncccc3c(OC[C@@H]3CNCCO3)n2)CCC1` [Compound 10.1, 7-(cyclopent-1-en-1-yl)-5-{[(2S)-morpholin-2-yl]methoxy}-1,6-naphthyridine], the half-maximal inhibitory concentration (IC50) on Syk came out at 209 nM. The concentration giving a half-maximal response (EC50) was 487 nM at Ba/F3-Syk cells and over 10000 nM in experiment [1] (Mus musculus, BaF3, 48 h).
With `CC(C)n1ccc(-c2cc(OC[C@@H]3CNCCCO3)c3nccnc3c2)c1` [Compound 8.10, 5-{[(2S)-1,4-oxazepan-2-yl]methoxy}-7-[1-(propan-2-yl)-1H-pyrrol-3-yl]quinoxaline], the IC50 at Syk amounted to 11.8 nM. The EC50 on Ba/F3-Syk cells came to 10.7 nM; in experiment [1] (Mus musculus, BaF3, 48 h), 1620 nM.
`FC(F)Cn1ccc(-c2cc(OC[C@@H]3CNCCO3)c3nccnc3c2)c1` [Compound 8.8, 7-[1-(2,2-difluoroethyl)-1H-pyrrol-3-yl]-5-{[(2S)-morpholin-2-yl]methoxy}quinoxaline]: on Syk, the half-maximal inhibitory concentration (IC50) amounted to 11.2 nM. Further, the concentration giving a half-maximal response (EC50) on Ba/F3-Syk cells came out at 16.2 nM; in experiment [1] (Mus musculus, BaF3, 48 h), 1270 nM.
Taken in the same sequence, the figures for `CC(C)(C)n1cc(-c2cc3ncccc3c(OC[C@@H]3CNCCO3)n2)cn1` [Compound 2.10, 7-(1-tert-butyl-1H-pyrazol-4-yl)-5-{[(2S)-morpholin-2-yl]methoxy}-1,6-naphthyridine] were 14.5 nM, 39.9 nM and 2780 nM.
Regarding `CC(C)(C)n1cc(-c2cc3ncccc3c(OC[C@@H]3CNC[C@@H](C(F)F)O3)n2)cn1` [Compound 2.99, 7-(1-tert-butyl-1-pyrazol-4-yl)-5-{[(2S,6S)-6-(difluoromethyl)morpholin-2-yl]methoxy}-1,6-naphthyridine], the half-maximal inhibitory concentration (IC50) on Syk worked out at 21.4 nM. Further, the EC50 is 17.8 nM at Ba/F3-Syk cells and 1010 nM in experiment [1] (Mus musculus, BaF3, 48 h).
Taken in the same sequence, the figures for `COCCn1ccc(-c2cc(OC[C@@H]3CNCC(C)(C)O3)c3nccnc3c2)c1` [Compound 8.4, 5-{[(2S)-6,6-dimethylmorpholin-2-yl]methoxy}-7-[1-(2-methoxyethyl)-1H-pyrrol-3-yl]quinoxaline] were 7.4 nM, 8.2 nM and 645 nM.
Take `Cn1cc(-c2cc3ncccc3c(OCC3CNCC(C)(C)O3)n2)cn1` (stereo not drawn) [Compound 2.13, 5-[(6,6-dimethylmorpholin-yl)methoxy]-7-(1-methyl-1H-pyrazol-4-yl)-1,6-naphthyridine]: the half-maximal inhibitory concentration (IC50) on Syk worked out at 51.6 nM. Also, the EC50 amounted to 79 nM at Ba/F3-Syk cells and 2400 nM in experiment [1] (Mus musculus, BaF3, 48 h).
Take `CC(C)(C)n1cc(-c2cc(OC[C@@H]3CNCCCO3)c3cccnc3c2)cn1` [Compound 3.14, 7-(1-tert-butyl-1H-pyrazol-4-yl)-5-{[(2S)-1,4-oxazepan-2-yl]methoxy}quinoline]: at Syk, the IC50 stood at 57.1 nM. Also, the EC50 worked out at 54.5 nM on Ba/F3-Syk cells and 6490 nM in experiment [1] (Mus musculus, BaF3, 48 h).
Turning to `CC(C)(C)n1cc(-c2cc3ncccc3c(OC[C@H]3OC[C@@H]4C[C@H]3N4)n2)cn1` (relative stereo) [Compound 2.106, 7-(1-tert-butyl-1H-pyrazol-4-yl)-5-{[rel-(1R,2S,5S)-3-oxa-6-azabicyclo[3.1.1]heptan-2-yl]methoxy}-1,6-naphthyridine], the concentration for half-maximal inhibition (IC50) at Syk came out at 23.6 nM. Also, the EC50 stood at 55.5 nM at Ba/F3-Syk cells and 575 nM in experiment [1].
For `c1cnc2cc(-c3ccn(C4COC4)c3)cc(OC[C@@H]3CNCCO3)c2c1` [Compound 7.12, 5-{[(2S)-morpholin-2-yl]methoxy}-7-[1-(oxetan-3-yl)-1H-pyrrol-3-yl]quinoline], on Syk, the IC50 is 29.3 nM. Further, the concentration for a half-maximal effect (EC50) on Ba/F3-Syk cells was determined as 23.3 nM; in experiment [1] (Mus musculus, BaF3, 48 h) it was 1560 nM.
As for `Cn1cc(-c2cc3ncccc3c(OCC3CNCCO3)n2)cn1` (stereo not drawn) [Compound 2.1, 7-(1-methyl-1H-pyrazol-4-yl)-5-[(morpholin-2-yl)methoxy]-1,6-naphthyridine], on Syk, the IC50 turned out to be 50.8 nM. For the same compound, the concentration for a half-maximal effect (EC50) on Ba/F3-Syk cells came to 92.8 nM; in experiment [1] (Mus musculus, BaF3, 48 h) it was 1250 nM.
With `C[C@@H]1CNC[C@@H](COc2nc(-c3cnn(C)c3)cc3ncccc23)O1` (relative stereo) [Compound 2.25, 7-(1-methyl-1H-pyrazol-4-yl)-5-{[(rel-2S,6R)-6-methylmorpholin-2-yl]methoxy}-1,6-naphthyridine], at Syk, the IC50 amounted to 39 nM. For the same compound, the half-maximal effective concentration (EC50) on Ba/F3-Syk cells was 62.1 nM; in experiment [1] (Mus musculus, BaF3, 48 h) it was 1510 nM.
For the compound `C[C@@H]1CO[C@H](COc2nc(-c3cnn(C)c3)cc3ncccc23)CN1` (relative stereo) [Compound 2.27, 7-(1-methyl-1H-pyrazol-4-yl)-5-{[(rel-2S,5R)-5-methylmorpholin-2-yl]methoxy}-1,6-naphthyridine], the concentration for half-maximal inhibition (IC50) on Syk turned out to be 247 nM. Moreover, the concentration for a half-maximal effect (EC50) at Ba/F3-Syk cells was found to be 305 nM; in experiment [1] (Mus musculus, BaF3, 48 h), 1500 nM.
With `CC(C)n1cc(-c2cc3ncccc3c(OC[C@@H]3CNCCO3)n2)cn1` [Compound 2.7, 5-{[(2S)-morpholin-2-yl]methoxy}-7-[1-(propan-2-yl)-1H-pyrazol-4-yl]-1,6-naphthyridine], the IC50 at Syk is 12.8 nM. Moreover, the EC50 was 37.6 nM at Ba/F3-Syk cells and 934 nM in experiment [1] (Mus musculus, BaF3, 48 h).
In the same order, the values of `Cn1cc(-c2cc3ncccc3c(OC[C@@H]3CNCCO3)n2)cn1` [Compound 2.3, 7-(1-methyl-1H-pyrazol-4-yl)-5-{[(2S)-morpholin-2-yl]methoxy}-1,6-naphthyridine] are 39 nM, 105 nM and 2350 nM.
On to `Cc1cc(-c2cc3ncccc3c(OC[C@@H]3CNCCO3)n2)cs1` [Compound 2.18, 7-(5-methylthiophen-3-yl)-5-{[(2S)-morpholin-2-yl]methoxy}-1,6-naphthyridine], for which the 50% inhibitory concentration (IC50) on Syk was determined as 47.2 nM. The half-maximal effective concentration (EC50) at Ba/F3-Syk cells came out at 78.2 nM; in experiment [1] (Mus musculus, BaF3, 48 h), 1860 nM.
In the same order, the values of `Cn1cc(-c2cc3ncccc3c(OC[C@@H]3CNCC4(CC4)O3)n2)cn1` [Compound 2.43, 7-(1-methyl-1H-pyrazol-4-yl)-5-{[(5S)-4-oxa-7-azaspiro[2.5]octan-5-yl]methoxy}-1,6-naphthyridine] are 31.9 nM, 79.9 nM and 2520 nM.
Turning to `CC(C)(C)n1cc(-c2cc3ncccc3c(OC[C@@H]3CNCCCO3)n2)cn1` [Compound 2.49, 7-(1-tert-butyl-1H-pyrazol-4-yl)-5-{[(2S)-1,4-oxazepan-2-yl]methoxy}-1,6-naphthyridine], on Syk, the IC50 came to 71 nM. Further, the EC50 on Ba/F3-Syk cells was 47.1 nM; in experiment [1] (Mus musculus, BaF3, 48 h), 3050 nM.
In the same order, the values of `C[C@@H]1CNC[C@@H](COc2cc(-c3ccn(C)c3)cc3ncccc23)O1` [Compound 3.24, 7-(1-methyl-1H-pyrrol-3-yl)-5-{[(2S,6R)-6-methylmorpholin-2-yl]methoxy}quinoline] are 16.4 nM, 28.2 nM and 2260 nM.
In the same order, the values of `CC(C)(C)n1ccc(-c2cc3ncccc3c(OC[C@@H]3CNCCO3)n2)c1` [Compound 2.58, 7-(1-tert-butyl-1H-pyrrol-3-yl)-5-{[(2S)-morpholin-2-yl]methoxy}-1,6-naphthyridine] are 9.6 nM, 25.4 nM and 6710 nM.
Regarding `C[C@@H]1NCCO[C@@H]1COc1nc(-c2cnn(C3(C)CC3)c2)cc2ncccc12` [Compound 13.16, 7-[1-(1-methylcyclopropyl)-1H-pyrazol-4-yl]-5-{[(2S,3S)-3-methylmorpholin-2-yl]methoxy}-1,6-naphthyridine], the concentration for half-maximal inhibition (IC50) on Syk came to 31.7 nM. For the same compound, the EC50 was determined as 43 nM on Ba/F3-Syk cells and 518 nM in experiment [1] (Mus musculus, BaF3, 48 h).
Take `c1cnc2cc(-c3cnn(C4CCC4)c3)nc(OC[C@@H]3CNCCO3)c2c1` [Compound 2.22, 7-(1-cyclobutyl-1H-pyrazol-4-yl)-5-{[(2S)-morpholin-2-yl]methoxy}-1,6-naphthyridine]: on Syk, the half-inhibitory concentration (IC50) was 28.1 nM. Besides, the EC50 on Ba/F3-Syk cells turned out to be 30.6 nM; in experiment [1] (Mus musculus, BaF3, 48 h), 694 nM.
In the same order, the values of `CC1(C)CNC[C@@H](COc2nc(-c3ccn(CC(F)F)c3)cc3ncccc23)O1` [Compound 6.13, 7-[1-(2,2-difluoroethyl)-1H-pyrrol-3-yl]-5-{[(2S)-6,6-dimethylmorpholin-2-yl]methoxy}-1,6-naphthyridine] are 14.6 nM, 21.8 nM and 2050 nM.
Turning to `Cn1ccc(-c2cc3ncccc3c(OC[C@@H]3CNCCCO3)n2)c1` [Compound 2.52, 7-(1-methyl-1H-pyrrol-3-yl)-5-{[(2S)-1,4-oxazepan-2-yl]methoxy}-1,6-naphthyridine], the 50% inhibitory concentration (IC50) at Syk came to 22.1 nM. Also, the EC50 on Ba/F3-Syk cells was 57.4 nM; in experiment [1] (Mus musculus, BaF3, 48 h), 9830 nM.
For `FC(F)Cn1ccc(-c2cc(OC[C@@H]3CNCC4(CCC4)O3)c3nccnc3c2)c1` [Compound 8.19, 7-[1-(2,2-difluoroethyl)-1H-pyrrol-3-yl]-5-{[(6S)-5-oxa-8-azaspiro[3.5]nonan-6-yl]methoxy}quinoxaline], at Syk, the concentration for half-maximal inhibition (IC50) is 6.5 nM. For the same compound, the half-maximal effective concentration (EC50) at Ba/F3-Syk cells was determined as 6.4 nM; in experiment [1] (Mus musculus, BaF3, 48 h), 872 nM.
In the same order, the values of `CC(C)(C)[C@@H]1CNC[C@@H](COc2nc(-c3cnn(C(C)(C)C)c3)cc3ncccc23)O1` [Compound 2.101, 7-(1-tert-butyl-1H-pyrazol-4-yl)-5-{[(2S,6R)-6-tert-butylmorpholin-2-yl]methoxy}-1,6-naphthyridine] are 40 nM, 25.4 nM and 628 nM.
